Common to all, as to format: biochemical
For test [1], the target named is T1, H3 protease activity in fraction #23 (Mus musculus, UniProt P06797).
T1 construct: a double chain mature form at ˜25 kD and ˜5 kD; endogenous in cells; host or cells: chromatin of 3 days +RA differentiating mouse ESCs (LF2), hydroxyapatite fraction #23
As to the kind of experiment: In vitro H3 cleavage assay of hydroxyapatite fraction #23 +/- protease inhibitors. Here is the method: Extracts were incubated in buffer (10 mM HEPES, 10 mM KCl, 1.5 mM MgCl2, 0.34M sucrose, 10% glycerol, 5 mM β-mercaptoethanol, all final) with 0.1 μg/μl rH3-HIS (purified from E. coli) and incubated at 37° C. for 1-3 hours. Reactions were stopped by addition of 5×SDS sample buffer and boiling; results were analyzed by immunoblotting with HIS-HRP and/or H3.cs1 antibody. For MS analysis, reactions were quenched by addition of 0.1% (final) TFA. rCathepsin L (R&D Systems, # 1515-CY-010), rCathepsin B (R&D Systems Cat No. BAF965), and rCathepsin K (Calbiochem Cat. No. 342001) were purchased from commercial sources and tested in the assay with rH3-HIS.
Three days+RA differentiating ESC chromatin pellets were solubilized by sonication in buffer A (80 mM NaPO^−4, 200 mM NaCl), injected onto a 2 or 5 mL hydroxyapatite column (BioRad), and fractionated with a 200 mM to 2M NaCl gradient. Each fraction was then assayed as described above. […] Digest was then acidified with glacial acetic acid and aliquots of samples were analyzed using an LTQ-FT as described above. Data was searched against a mouse database using SEQUEST (Eng et al., Journal of the American Society of Mass Spectrometry 5:976-989 (1994), which is hereby incorporated by reference in its entirety). All spectra of interest were manually validated.
To validate further the identification of Cathepsin L as a histone H3 protease, the enriched fractions were tested with different classes of protease inhibitors in the H3 cleavage assay.

In test [2] the target is H3 cleavage activity (Mus musculus, UniProt P06797). As to the kind of experiment: H3 cleavage activity with addition of chelators. The settings on record: moderately high concentrations. Here is the method: Extracts were incubated in buffer (10 mM HEPES, 10 mM KCl, 1.5 mM MgCl2, 0.34M sucrose, 10% glycerol, 5 mM β-mercaptoethanol, all final) with 0.1 μg/μl rH3-HIS (purified from E. coli) and incubated at 37° C. for 1-3 hours. […] For MS analysis, reactions were quenched by addition of 0.1% (final) TFA. rCathepsin L (R&D Systems, # 1515-CY-010), rCathepsin B (R&D Systems Cat No. BAF965), and rCathepsin K (Calbiochem Cat. No. 342001) were purchased from commercial sources and tested in the assay with rH[…].

The target in test [3] is T2, rCathepsin L (Mus musculus, UniProt P06797).
T2 construct: purchased R&D Systems 1515-CY-010
As to the kind of experiment: ELISA based H3cs.1 cleavage assay of H3 15-31 peptides. The settings on record: pH 7.5 and pH 5.5; compared to unmodified H3 15-31 peptide. Here is the method: FIG. 7A is an immunoblot showing cleavage of the modified recombinant histone 3 substrates following incubation with rCathepsin L. The four rH3 substrates used in the cleavage assay include: 1=rH3 unmodified, 2=rH3 alkylated to K27me2, 3=rH3 pan-acetylated with acetic anhydride, 4=rH3+K27me2 pan-acetylated with acetic anhydride. FIG. 7B is a graph showing the amount of recombinant H3 cleavage product formed following incubation with Cathepsin L. H3 cleavage reactions were performed as in FIG. 7A using synthesized H3 peptides representing amino acids 15 to 31. Reactions were incubated with ˜250 pmol peptide and quenched with 0.1% TFA before being plated in duplicate for ELISA with the H3cs.1 antibody. Signal was normalized to that of mock reactions for each peptide. Results represent three independent experiments. […] Binding decreases 3-fold with cleaved peptide. p<0.01. Kds are in μM±SEM. Data points represent the mean±SD
In order to test the effect of these modifications more quantitatively and specifically, a set of five peptides with identical backbone sequences flanking the H3 cleavage site (H3 15-31) were synthesized and then modified as follows: unmodified, K18 acetyl, K23 acetyl, K18ac+K23ac, and K27me2. An ELISA based assay using the H3cs.1 antibody described previously (characterized in FIG. 11) was used to quantitatively measure the H3cs.1 cleavage activity of rCathepsin L on these peptides.

Where no end group is shown, it is not given here.

T2 sequence (P06797 114-334): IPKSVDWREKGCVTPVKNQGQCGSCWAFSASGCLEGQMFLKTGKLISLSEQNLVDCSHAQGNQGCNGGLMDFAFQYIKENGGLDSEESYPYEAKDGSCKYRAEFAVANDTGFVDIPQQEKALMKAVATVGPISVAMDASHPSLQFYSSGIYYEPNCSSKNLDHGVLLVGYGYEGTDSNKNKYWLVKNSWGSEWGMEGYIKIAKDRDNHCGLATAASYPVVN
Chain of H3 cleavage activity (P06797 114-334): as above
T1 sequence (P06797 114-288 limits assumed): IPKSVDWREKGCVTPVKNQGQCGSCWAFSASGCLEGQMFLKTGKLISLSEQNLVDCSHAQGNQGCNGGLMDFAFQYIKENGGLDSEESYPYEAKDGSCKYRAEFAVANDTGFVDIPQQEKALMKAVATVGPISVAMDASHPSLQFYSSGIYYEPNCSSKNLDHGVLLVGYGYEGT
T1 sequence (P06797 291-334 limits assumed): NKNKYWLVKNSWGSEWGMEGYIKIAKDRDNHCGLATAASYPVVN

Consider `NCCc1ccc(S(=O)(=O)F)cc1` [AEBSF], for which the H3 cleavage activity entry is on record as “not at the lower concentrations tested” in test [1] (AEBSF 2 mM and 10 mM); “modest reduction in cleavage activity” in test [1] (AEBSF 20 mM).

With `O=C(O)CN(CCN(CC(=O)O)CC(=O)O)CC(=O)O` [EDTA, Ethylenediaminetetraacetic acid], the H3 cleavage activity entry in test [2] is on record as “Significant inhibition”.

Take `O=C(O)CN(CCOCCOCCN(CC(=O)O)CC(=O)O)CC(=O)O` [EGTA]: the H3 cleavage activity entry in test [2] is recorded as “Significant inhibition”.

On to “K18 acetyl: synthesized H3 15-31 peptide acetylated at K18 (APRKQLATKAARKSAPA; K18 acetylation; UniProt P68433 16-32, looked up, fragment)”, for which, in test [3], the “H3cs.1 cleavage activity of rCathepsin L on peptide” value (“H3cs.1 cleavage activity” for short) was “increases”.

With “K18ac+K23ac: synthesized H3 15-31 peptide acetylated at K18 and K23 (APRK(Ac)QLATK(Ac)AARKSAPA; UniProt P68433 16-32, looked up, fragment)”, the “H3cs.1 cleavage activity” value in test [3] is reported as “very little cleavage activity”.

With “K23ac: synthesized H3 15-31 peptide acetylated at K23 (APRKQLATK(Ac)AARKSAPA; UniProt P68433 16-32, looked up, fragment)”, the “H3cs.1 cleavage activity” value in test [3] is listed as “very little cleavage activity”.

As to “K27me2: synthesized H3 15-31 peptide modified with K27me2 (APRKQLATKAARKSAPA; K27 dimethylation; UniProt P68433 16-32, looked up, fragment)”, the “H3cs.1 cleavage activity” value in test [3] is reported as “strongly increases”.
